PubChem BioAssay (NCI)
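Cultured in 96-well plates, cells were exposed to test compound for 48 hours across five concentrations. TGI marks complete inhibition of growth.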

Columns and labels:
Test in all cases: NCI tumour cell line growth inhibition, 48 h
HL-60(TB) leukemia = tested on: HL-60(TB) leukemia
KM20L2 colon = tested on: KM20L2 colon
TK-10 renal = tested on: TK-10 renal
UACC-257 melanoma = tested on: UACC-257 melanoma
NCI-H460 lung = tested on: NCI-H460 lung
A549 NSCLC = tested on: A549 NSCLC
SNB-78 CNS = tested on: SNB-78 CNS
UO-31 renal = tested on: UO-31 renal
KM12 colon = tested on: KM12 colon
NCI-H226 lung = tested on: NCI-H226 lung
HOP-62 NSCLC = tested on: HOP-62 NSCLC
MOLT-4 leukemia = tested on: MOLT-4 leukemia
OVCAR-8 ovarian = tested on: OVCAR-8 ovarian
NCI-H23 lung = tested on: NCI-H23 lung
M19-MEL melanoma = tested on: M19-MEL melanoma
LXFL 529 NSCLC = tested on: LXFL 529 NSCLC
DMS 114 small cell lung = tested on: DMS 114 small cell lung
SK-OV-3 ovarian = tested on: SK-OV-3 ovarian
SK-MEL-5 melanoma = tested on: SK-MEL-5 melanoma
LOX IMVI melanoma = tested on: LOX IMVI melanoma
HCT-116 colon = tested on: HCT-116 colon
CAKI-1 renal = tested on: CAKI-1 renal
HCT-15 colon = tested on: HCT-15 colon
SF-268 CNS = tested on: SF-268 CNS
NCI-H522 lung = tested on: NCI-H522 lung
RXF-631 renal = tested on: RXF-631 renal
UACC-62 melanoma = tested on: UACC-62 melanoma
SF-539 CNS = tested on: SF-539 CNS
MALME-3M melanoma = tested on: MALME-3M melanoma
RPMI-8226 leukemia = tested on: RPMI-8226 leukemia
U251 CNS = tested on: U251 CNS
OVCAR-3 ovarian = tested on: OVCAR-3 ovarian
RXF 393 renal = tested on: RXF 393 renal
HT29 colon = tested on: HT29 colon
SR leukemia = tested on: SR leukemia
SW-620 colon = tested on: SW-620 colon
K-562 leukemia = tested on: K-562 leukemia
SNB-19 CNS = tested on: SNB-19 CNS
OVCAR-4 ovarian = tested on: OVCAR-4 ovarian
HCC-2998 colon = tested on: HCC-2998 colon
786-0 renal = tested on: 786-0 renal
DMS 273 small cell lung = tested on: DMS 273 small cell lung
HOP-92 NSCLC = tested on: HOP-92 NSCLC
OVCAR-5 ovarian = tested on: OVCAR-5 ovarian
XF 498 CNS = tested on: XF 498 CNS
DLD-1 colon = tested on: DLD-1 colon
CCRF-CEM leukemia = tested on: CCRF-CEM leukemia
A498 renal = tested on: A498 renal
SNB-75 CNS = tested on: SNB-75 CNS
SF-295 CNS = tested on: SF-295 CNS
IGROV1 ovarian = tested on: IGROV1 ovarian
SN12C renal = tested on: SN12C renal
COLO 205 colon = tested on: COLO 205 colon
M14 melanoma = tested on: M14 melanoma
EKVX NSCLC = tested on: EKVX NSCLC

Measured: TGI

N#CC(C#N)=C(C(C#N)C#N)C(C#N)C#N
> 100 µM: all assays above
